Assay results: patent US9757327B2, “Abutilon indicum extracts and methods of use” (Avon Products, Inc., priority 2013, dated 2017)

System: dorsal forearm skin of healthy female Caucasian subjects
Assay: In vivo biopsy (histology after 3 week patch treatment)
Design: species or system human
Details: 3 weeks semi-occlusion patch, 2 mg/cm^2, extract 0.33% active, retinol 0.05% active
Method: Healthy female Caucasian subjects aged 30-65, with skin type II or III and mild to moderate photo damage, were treated on the dorsal forearm for 3 weeks (3 consecutive rounds of 5×24 hour) under semi-occlusion patches. Test articles including active ingredients, vehicle controls, and retinol were applied in a randomized allocation on 6 sites on each forearm. The application dose was 2 mg/cm^2. After 3 week treatment, a 2 mm punch biopsy was obtained from each treatment site and fixed in 10% buffered formalin. Tissue samples then embedded in paraffin, sectioned (5 μm thickness), and stained for skin markers after re-hydration. […] Retinol at a active concentration of 0.05% was used as a positive control. Retinol use at a 0.05% active concentration in the semi-occlusion patch vehicle formulation yielded a visual score of approximately 0.56 out of a 4 point scale in HE staining (measuring hematoxylin and eosin staining, an indication of viable epidermal thickness and health) with 63.6% of the subjects showing an improvement; a visual score of 0.6 out of a 4 point scale in M-TC staining (Masson's trichrome staining, assessing total mature fiber-forming collagen in the dermis—mainly Collagen I, […] and Collagen V) with 51.6% of the subjects showing an improvement; a visual score of 0.52 out of a 4 point scale for pro-Col (measuring new synthesis of Collagen I by skin fibroblasts in the dermis) with 51.6% of the subjects showing an improvement; and a visual score of 0.57 out of a 4 point scale for HA (measuring level of hyaluronic acid in both dermis and epidermis) with 50% of the subjects showing an improvement.

Structure (SMILES): CC1=C(/C=C/C(C)=C/C=C/C(C)=C/CO)C(C)(C)CCC1 [Retinol]
- subjects showing an improvement, HA: 50 % of the subjects
- subjects showing an improvement, HE staining: 63.6 % of the subjects
- subjects showing an improvement, M-TC staining: 51.6 % of the subjects
- subjects showing an improvement, pro-Col: 51.6 % of the subjects
- visual score for HA (hyaluronic acid in dermis and epidermis) (out of a 4 point scale): 0.57
- visual score for pro-Col (new synthesis of Collagen I) (out of a 4 point scale): 0.52
- visual score in HE staining (viable epidermal thickness and health) (out of a 4 point scale): approximately 0.56
- visual score in M-TC staining (total mature fiber-forming collagen in the dermis) (out of a 4 point scale): 0.6
